Laboratory results: patent publication EP2931723B1, “NEW BICYCLIC COMPOUNDS AND THEIR USE AS ANTIBACTERIAL AGENTS AND -LACTAMASE INHIBITORS” (Fedora Pharmaceuticals Inc., priority 2012, dated 2014)

Assays:
Assay in all cases: MIC, antibacterial and synergistic activity
Format in all cases: cell-based
E. coli ATCC 25922 = E. coli ATCC 25922 (Wt)
A. baumanii JMI 2659 = A. baumanii JMI 2659 (Ges-14 (Cpase))
E.coli JMI 4103 = E.coli JMI 4103 (KPC-2, Tem-1, CMY-Type)
E. coli JMI 4080 = tested on: E. coli JMI 4080
E. coli JMI 10768 [1] = conditions: E. coli JMI 10768 (CTX-M15 (Weak ESBL))
Description: (§1) In the Tables 10 - 12, compounds herein disclosed were tested in combination with various antibiotics against metallo β-lactamase producing bacteria. Table 3: Synergy of the inhibitor Ex. 1 (4 µg/mL) in combination with antibiotics

E. coli JMI 2665 = tested on: E. coli JMI 2665
Description: as §1

K. pneumo JMI 2673 [2] = conditions: K. pneumo JMI 2673 (CTX-M14 (ESBL))
Procedure, shortened: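 Antibacterial synergy was assessed by testing a β-lactamase inhibitor compound in combination with antibiotics. The inhibitor was held at a fixed concentration of 4 µg/mL, and the minimum inhibitory concentration of the partner antibiotic was determined in its presence.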

K. pneumo JMI 2699 = K. pneumo JMI 2699 (VIM-1, CTX-M3)
Procedure, shortened: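 Against bacteria that produce metallo β-lactamase, the inhibitor was added at a constant 4 µg/mL. Partner antibiotics were then titrated to obtain MICs.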

K. pneumo JMI 4088 [3] = conditions: K. pneumo JMI 4088 (KPC-3 (Cpase))
Procedure, shortened: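 The compound was tested for synergy by combining it with antibiotics and measuring minimum inhibitory concentrations against β-lactamase producing bacteria. The inhibitor was present at a fixed concentration of 4 µg/mL together with the partner antibiotic, and MIC values were recorded.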

K.pneumo JMI 4109 [4] = conditions: K.pneumo JMI 4109 (SHV-1, SHV-12)
Procedure, shortened: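 Antibacterial synergy was assessed by pairing each inhibitor compound, at a constant concentration of 4 µg/mL, with β-lactam antibiotics. The combinations were run against bacterial strains that produce β-lactamases, and the readout was the minimum inhibitory concentration of the antibiotic in the presence of the inhibitor.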

K. pneumo JMI 4106 = K. pneumo JMI 4106 (KPC-3, TEM-1, SHV-12, SHV-141)
E. coli JMI 2692 = E. coli JMI 2692 (NDM-1, TEM-1, CTX-M-15)
Description: (§2) In the Tables 10 - 12, compounds herein disclosed were tested in combination with various antibiotics against metallo β-lactamase producing bacteria.

K. pneumo JMI 2693 = K. pneumo JMI 2693 (NDM-1 (Cpase))
Description: as §2

K. pneumo JMI 2697 = K. pneumo JMI 2697 (IMP-4 (Cpase))
Description: as §2

K.pneumo JMI 4109 [5] = conditions: K.pneumo JMI 4109 (SHV-1, SHV-12); substance alone
K. pneumo JMI 2673 [6] = conditions: K. pneumo JMI 2673 (CTX-M14 (ESBL)); substance alone
K. pneumo JMI 2674 = K. pneumo JMI 2674 (CTX-M15 (ESBL)); substance alone
K. pneumo JMI 4088 [7] = conditions: K. pneumo JMI 4088 (KPC-3 (Cpase)); substance alone
P. aerug JMI 2686 = P. aerug JMI 2686 (KPC-2 (Cpase)); substance alone
E. coli JMI 10767 = E. coli JMI 10767 (Wt)
E. coli JMI 10768 [8] = conditions: E. coli JMI 10768 (CTX-M15 (Weak ESBL)); Meropenem + inhibitor at 4 µg/mL
E. coli JMI 11103 = tested on: E. coli JMI 11103
[9] = Aztreonam + inhibitor at 4 µg/mL
[10] = Ceftazidime + inhibitor at 4 µg/mL
[11] = Meropenem + inhibitor at 4 µg/mL

CC(=O)NNC(=O)[C@@H]1CC[C@@H]2CN1C(=O)N2OS(=O)(=O)O [Ex. 5, (2S,5R)-N'-acetyl-7-oxo-6-(sulfooxy)-1,6-diazabicyclo[3.2.1]octane-2-carbohydrazide]
>16 µg/mL: MIC Ceftazidime + inhibitor (A. baumanii JMI 2659; [10])
0.125 µg/mL: MIC Meropenem + inhibitor (K. pneumo JMI 4088 [3]; [11]) | MIC Meropenem + inhibitor (K. pneumo JMI 2693; [11]) | MIC Meropenem + inhibitor (K. pneumo JMI 2697; [11])
> 16 µg/mL: MIC (A. baumanii JMI 2659; Acinetobacter baumannii, JMI2659, substance alone, read-out: MIC) | MIC (K. pneumo JMI 2699; substance alone, read-out: MIC) | MIC (K. pneumo JMI 4106; substance alone, read-out: MIC) | MIC (K. pneumo JMI 2693; substance alone) | MIC (K.pneumo JMI 4109 [5]) | MIC (K. pneumo JMI 2673 [6]) | MIC (K. pneumo JMI 2674) | MIC (K. pneumo JMI 4088 [7])
2 µg/mL: MIC (E. coli ATCC 25922; Escherichia coli, ATCC25922, substance alone) | MIC (E. coli JMI 4080; Escherichia coli, JMI4080, E. coli JMI 4080 (Tem-10), substance alone) | MIC (E. coli JMI 2665; Escherichia coli, JMI2665) | MIC Ceftazidime + inhibitor (K. pneumo JMI 2699; [10]) | MIC Meropenem + inhibitor (K. pneumo JMI 4106; [11]) | MIC (E. coli JMI 2692; Escherichia coli, JMI2692, substance alone, read-out: MIC)
1 µg/mL: MIC Aztreonam + inhibitor (K. pneumo JMI 4106; [9])
≤0.062 µg/mL: MIC Aztreonam + inhibitor (E. coli ATCC 25922; [9]) | MIC Aztreonam + inhibitor (E.coli JMI 4103; [9]) | MIC Aztreonam + inhibitor (E. coli JMI 4080; E. coli JMI 4080 (Tem-10), Aztreonam + inhibitor at 4 µg/mL) | MIC Aztreonam + inhibitor (E. coli JMI 10768 [1]; [9]) | MIC Aztreonam + inhibitor (E. coli JMI 2665; E. coli JMI 2665 (CMY-2 (Plasmid Cpase)), Aztreonam + inhibitor at 4 µg/mL) | MIC Aztreonam + inhibitor (K. pneumo JMI 2673 [2]; [9]) | MIC Aztreonam + inhibitor (K. pneumo JMI 2699; [9]) | MIC Aztreonam + inhibitor (K.pneumo JMI 4109 [4]; [9]) | MIC Aztreonam + inhibitor (E. coli JMI 2692; [9]) | MIC Aztreonam + inhibitor (K. pneumo JMI 2697; [9]) | MIC Aztreonam + inhibitor (E. coli JMI 11103; E. coli JMI 11103 (CTX-M15 (Intermediate ESBL)), Aztreonam + inhibitor at 4 µg/mL)
≤0.031 µg/mL: MIC Meropenem + inhibitor (E. coli ATCC 25922; [11]) | MIC Meropenem + inhibitor (E.coli JMI 4103; [11]) | MIC Meropenem + inhibitor (E. coli JMI 4080; E. coli JMI 4080 (Tem-10), Meropenem + inhibitor at 4 µg/mL) | MIC Meropenem + inhibitor (E. coli JMI 2665; E. coli JMI 2665 (CMY-2 (Plasmid Cpase)), Meropenem + inhibitor at 4 µg/mL) | MIC Meropenem + inhibitor (K. pneumo JMI 2673 [2]; [11]) | MIC Meropenem + inhibitor (K. pneumo JMI 2699; [11]) | MIC Meropenem + inhibitor (K.pneumo JMI 4109 [4]; [11]) | MIC Meropenem + inhibitor (E. coli JMI 2692; [11]) | MIC Meropenem + inhibitor (E. coli JMI 10767; [11]) | MIC Meropenem + inhibitor (E. coli JMI 10768 [8]) | MIC Meropenem + inhibitor (E. coli JMI 11103; E. coli JMI 11103 (CTX-M15 (Intermediate ESBL)), Meropenem + inhibitor at 4 µg/mL)
8 µg/mL: MIC (E.coli JMI 4103; Escherichia coli, JMI4103, substance alone) | MIC (E. coli JMI 10768 [1]; Escherichia coli, JMI10768, substance alone) | MIC (E. coli JMI 10767; Escherichia coli, JMI10767, substance alone) | MIC (E. coli JMI 11103; Escherichia coli, JMI11103, E. coli JMI 11103 (CTX-M15 (Intermediate ESBL)), substance alone)
>2 µg/mL: MIC Meropenem + inhibitor (A. baumanii JMI 2659; [11]) | MIC Ceftazidime + inhibitor (K. pneumo JMI 2697; [10])
0.5 µg/mL: MIC Ceftazidime + inhibitor (K. pneumo JMI 4106; [10]) | MIC Aztreonam + inhibitor (K. pneumo JMI 2693; [9]) | MIC Ceftazidime + inhibitor (K. pneumo JMI 2693; [10])
>4 µg/mL: MIC Aztreonam + inhibitor (A. baumanii JMI 2659; [9])
16 µg/mL: MIC (K. pneumo JMI 2697; substance alone) | MIC (P. aerug JMI 2686)
0.25 µg/mL: MIC Aztreonam + inhibitor (K. pneumo JMI 4088 [3]; [9])
≤0.25 µg/mL: MIC Ceftazidime + inhibitor (E. coli ATCC 25922; [10]) | MIC Ceftazidime + inhibitor (E.coli JMI 4103; [10]) | MIC Ceftazidime + inhibitor (E. coli JMI 4080; E. coli JMI 4080 (Tem-10), Ceftazidime + inhibitor at 4 µg/mL) | MIC Ceftazidime + inhibitor (E. coli JMI 10768 [1]; [10]) | MIC Ceftazidime + inhibitor (E. coli JMI 2665; E. coli JMI 2665 (CMY-2 (Plasmid Cpase)), Ceftazidime + inhibitor at 4 µg/mL) | MIC Ceftazidime + inhibitor (K. pneumo JMI 2673 [2]; [10]) | MIC Ceftazidime + inhibitor (K. pneumo JMI 4088 [3]; [10]) | MIC Ceftazidime + inhibitor (K.pneumo JMI 4109 [4]; [10]) | MIC Ceftazidime + inhibitor (E. coli JMI 2692; [10]) | MIC Ceftazidime + inhibitor (E. coli JMI 11103; E. coli JMI 11103 (CTX-M15 (Intermediate ESBL)), Ceftazidime + inhibitor at 4 µg/mL)
